Measurements published in patent US8455475B2 (Gruenenthal GmbH, priority 2009, dated 2013).

These molecules were tested against T1, rat B1R (bradykinin receptor 1) (Rattus norvegicus, UniProt P97583) (assay: FLIPR Ca2+ assay (Fluo-4) on CHO K1 cells stably transfected with the B1R gene of the rat (rB1R cells): % inhibition at 10 μM / IC50, agonist Des-Arg9-bradykinin). Conditions: CHO-K1, rat B1R.
T1 construct: expressed in transfected cells; host or cells: CHO K1 cells
T1 sequence (P97583 1-337): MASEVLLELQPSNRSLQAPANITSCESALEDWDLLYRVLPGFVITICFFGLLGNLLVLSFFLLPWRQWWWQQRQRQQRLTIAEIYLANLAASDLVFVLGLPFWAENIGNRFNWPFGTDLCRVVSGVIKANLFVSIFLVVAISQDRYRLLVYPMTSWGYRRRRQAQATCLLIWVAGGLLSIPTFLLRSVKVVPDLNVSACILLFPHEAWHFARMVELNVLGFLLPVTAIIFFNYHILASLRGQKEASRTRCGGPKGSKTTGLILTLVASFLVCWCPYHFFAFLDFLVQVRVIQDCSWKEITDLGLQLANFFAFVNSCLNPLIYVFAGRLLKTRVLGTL
Type: cell-based
Experimental: The agonistic or antagonistic action of substances can be quantified on the bradykinin receptor 1 (B1R) of the human and rat species with ectopically expressing cell lines (CHO K1 cells) and with the aid of a Ca^2+-sensitive dyestuff (Fluo-4) in a fluorescent imaging plate reader (FLIPR). The figure in % activation is based on the Ca^2+ signal after addition of Lys-Des-Arg^9-bradykinin (0.5 nM) or Des-Arg^9-bradykinin (100 nM). Antagonists lead to a suppression of the Ca^2+ inflow after addition of the agonist. % inhibition compared with the maximum achievable inhibition is stated.
The agonistic or antagonistic action of substances can be determined on the bradykinin receptor 1 (B1R) of the human and rat species with the following assay. In accordance with this assay, the Ca^2+ inflow through the channel is quantified with the aid of a Ca^2+-sensitive dyestuff (type Fluo-4, Molecular Probes Europe BV, Leiden, Holland) in a fluorescent imaging plate reader (FLIPR, Molecular Devices, Sunnyvale, USA).
Chinese hamster ovary cells (CHO K1 cells) transfected stably with the human B1R gene (hB1R cells) or the B1R gene of the rat (rB1R cells) are used. For functional studies, these cells are plated out on black 96-well plates with a clear base (BD Biosciences, Heidelberg, Germany or Greiner, Frickenhausen, Germany) in a density of 20,000-35,000 cells/well. The cells are left overnight at 37° C. and 5% CO2 in culture medium (hB1R cells: Nutrient Mixture Ham's F12, Gibco Invitrogen GmbH, Karlsruhe, Germany or DMEM, Sigma-Aldrich, Taufkirchen, Germany; rB1R cells: D-MEM/F12, Gibco Invitrogen GmbH, Karlsruhe, Germany) with 10 vol. % FBS (foetal bovine serum, Gibco Invitrogen GmbH, Karlsruhe, Germany or PAN Biotech GmbH, Aidenbach, Germany). On the following day, the cells are loaded for 60 min at 37° C. with 2.13 μM Fluo-4 (Molecular Probes Europe BV, Leiden Holland) in HBSS buffer (Hank's buffered saline solution, Gibco Invitrogen GmbH, Karlsruhe, Germany) with 2.5 mM probenecid (Sigma-Aldrich, Taufkirchen, Germany) and 10 mM HEPES (Sigma-Aldrich, Taufkirchen, Germany). The plates are then washed 2× with HBSS buffer, and HBSS buffer which additionally contains 0.1% BSA (bovine serum albumin; Sigma-Aldrich, Taufkirchen, Germany), 5.6 mM glucose and 0.05% gelatine (Merck KGaA, Darmstadt, Germany) is added. After a further incubation of 20 minutes at room temperature, the plates are inserted into the FLIPR for the Ca^2+ measurement. Alternatively, the plates are washed with buffer A (15 mM HEPES, 80 mM NaCl, 5 mM KCl, 1.2 mM CaCl2, 0.7 mM MgSO4, 2 g/l glucose, 2.5 mM probenecid), buffer A is added and the plates are loaded with 2.5 μM Fluo-4 and 0.025% Pluronic F127 (Sigma-Aldrich, Taufkirchen, Germany). Thereafter, the cells are washed 2× with buffer A and incubated for 30 minutes at room temperature with buffer A, which additionally contains 0.05% BSA and 0.05% gelatine, and thereafter inserted into the FLIPR for the Ca^2+ measurement. The Ca^2+-dependent fluorescence is measured here before and after addition of substances (λex=488 nm, λem=540 nm). Quantification is by measurement of the highest fluorescence intensity (FC, fluorescence counts) over time.
The FLIPR protocol consists of 2 additions of substance. Test substances (10 μM) are first pipetted on to the cells and the Ca^2+ inflow is compared with the control (hB1R: Lys-Des-Arg^9-bradykinin>=50 nM; rB1R: Des-Arg^9-bradykinin 10 μM). This gives the result in % activation based on the Ca^2+ signal after addition of Lys-Des-Arg^9-bradykinin (>=50 nM) or Des-Arg^9-bradykinin (10 μM). After incubation for 10-20 minutes, Lys-Des-Arg^9-bradykinin (hB1R) or Des-Arg^9-bradykinin (rB1R) in the concentration of the EC80 is applied and the inflow of Ca^2+ is likewise determined. Antagonists lead to a suppression of the Ca^2+ inflow. % inhibition compared with the maximum achievable inhibition is calculated.
For determination of the IC50 value, the substances are added in various concentrations. […]

SMILES | inhibition at 10 µM
CC1(C)CC(NS(=O)(=O)c2c(Cl)cccc2Cl)c2cc(C(=O)N3CCC4(CC3)CCN(c3ccncc3)CC4)ccc21 (stereo not shown) [IND_CC-332, 2,6-Dichloro-N-[3,3-dimethyl-6-(3-pyridin-4-yl-3,9-diazaspiro[5.5]undecane-9-carbonyl)-1,2-dihydro-inden-1-yl]-benzenesulfonic acid amide] | 97%
O=C(c1ccc2c(c1)C(NS(=O)(=O)c1c(Cl)cccc1Cl)CC2)N1CCC2(CCN(c3ccncc3)CC2)C1 (stereo not shown) [IND_CC-333, 2,6-Dichloro-N-[6-(8-pyridin-4-yl-2,8-diazaspiro[4.5]decane-2-carbonyl)-2,3-dihydro-1H-inden-1-yl]-benzenesulfonic acid amide] | 92%
CC1(C)Cc2ccc(C(=O)N3CCC4(CC3)CCN(c3ccncc3)CC4)cc2C1NS(=O)(=O)c1ccc(Cl)cc1Cl (stereo not shown) [IND_CC-334, 2,4-Dichloro-N-[2,2-dimethyl-6-(9-pyridin-4-yl-3,9-diazaspiro[5.5]undecane-3-carbonyl)-1,3-dihydro-inden-1-yl]-benzenesulfonic acid amide] | 90%
CC1(C)CC(NS(=O)(=O)c2ccc(Cl)cc2Cl)c2cc(C(=O)N3CCC4(CC3)CCN(c3ccncc3)CC4)ccc21 (stereo not shown) [IND_CC-335, 2,4-Dichloro-N-[3,3-dimethyl-6-(3-pyridin-4-yl-3,9-diazaspiro[5.5]undecane-9-carbonyl)-1,2-dihydro-inden-1-yl]-benzenesulfonic acid amide] | 102%
CC1(C)Cc2ccc(C(=O)N3CCC4(CC3)CCN(c3ccncc3)CC4)cc2C1NS(=O)(=O)c1ccccc1Cl (stereo not shown) [IND_CC-336, 2-Chloro-N-[2,2-dimethyl-6-(9-pyridin-4-yl-3,9-diazaspiro[5.5]undecane-3-carbonyl)-1,3-dihydro-inden-1-yl]-benzenesulfonic acid amide] | 103%
CC1(C)CC(NS(=O)(=O)c2ccccc2Cl)c2cc(C(=O)N3CCC4(CC3)CCN(c3ccncc3)CC4)ccc21 (stereo not shown) [IND_CC-337, 2-Chloro-N-[3,3-dimethyl-6-(3-pyridin-4-yl-3,9-diazaspiro[5.5]undecane-9-carbonyl)-1,2-dihydro-inden-1-yl]-benzenesulfonic acid amide] | 104%
Cc1cc(F)ccc1S(=O)(=O)NC1c2cc(C(=O)N3CCC4(CC3)CCN(c3ccncc3)CC4)ccc2CC1(C)C (stereo not shown) [IND_CC-338, N-[2,2-Dimethyl-6-(9-pyridin-4-yl-3,9-diazaspiro[5.5]undecane-3-carbonyl)-1,3-dihydro-inden-1-yl]-4-fluoro-2-methyl-benzenesulfonic acid amide] | 103%
Cc1cc(F)ccc1S(=O)(=O)NC1CC(C)(C)c2ccc(C(=O)N3CCC4(CC3)CCN(c3ccncc3)CC4)cc21 (stereo not shown) [IND_CC-339, N-[3,3-Dimethyl-6-(3-pyridin-4-yl-3,9-diazaspiro[5.5]undecane-9-carbonyl)-1,2-dihydro-inden-1-yl]-4-fluoro-2-methyl-benzenesulfonic acid amide] | 103%
CC1(C)CC(NS(=O)(=O)c2cccc(C(F)(F)F)c2)c2cc(C(=O)N3CCC4(CC3)CCN(c3ccncc3)CC4)ccc21 (stereo not shown) [IND_CC-340, N-[3,3-Dimethyl-6-(3-pyridin-4-yl-3,9-diazaspiro[5.5]undecane-9-carbonyl)-1,2-dihydro-inden-1-yl]-3-(trifluoromethyl)-benzenesulfonic acid amide] | 101%
CC1(C)Cc2ccc(C(=O)N3CCC4(CC3)CCN(c3ccncc3)CC4)cc2C1NS(=O)(=O)c1cccc(C(F)(F)F)c1 (stereo not shown) [IND_CC-341, N-[2,2-Dimethyl-6-(9-pyridin-4-yl-3,9-diazaspiro[5.5]undecane-3-carbonyl)-1,3-dihydro-inden-1-yl]-3-(trifluoromethyl)-benzenesulfonic acid amide] | 87%
O=C(c1ccc2c(c1)C(NS(=O)(=O)c1cccc(C(F)(F)F)c1)CC2)N1CCC2(CCN(c3ccncc3)CC2)C1 (stereo not shown) [IND_CC-342, N-[6-(8-Pyridin-4-yl-2,8-diazaspiro[4.5]decane-2-carbonyl)-2,3-dihydro-1H-inden-1-yl]-3-(trifluoromethyl)-benzenesulfonic acid amide] | 103%
CN(C1CCc2ccc(C(=O)N3CCC4(CC3)CCN(c3ccncc3)CC4)cc21)S(=O)(=O)c1cc(Cl)ccc1Cl (stereo not shown) [IND_CC-344, 2,5-Dichloro-N-methyl-N-[6-(9-pyridin-4-yl-3,9-diazaspiro[5.5]undecane-3-carbonyl)-2,3-dihydro-1H-inden-1-yl]-benzenesulfonic acid amide] | 99%

Continued, values first:

inhibition at 10 µM | SMILES
105% | Cc1ccccc1C(=O)N(C)C1CCc2ccc(C(=O)N3CCC4(CC3)CCN(c3ccncc3)CC4)cc21 (stereo not shown) [IND_CC-345, N,2-Dimethyl-N-[6-(9-pyridin-4-yl-3,9-diazaspiro[5.5]undecane-3-carbonyl)-2,3-dihydro-1H-inden-1-yl]-benzamide]
104% | Cc1ccccc1C(=O)NC1CCc2ccc(C(=O)N3CCC4(CC3)CCN(c3ccncc3)CC4)cc21 (stereo not shown) [IND_CC-346, 2-Methyl-N-[6-(9-pyridin-4-yl-3,9-diazaspiro[5.5]undecane-3-carbonyl)-2,3-dihydro-1H-inden-1-yl]-benzamide]
106% | Cc1ccccc1C(=O)NC1CCc2ccc(C(=O)N3CCC4(CC3)CCN(c3ccncc3)C4)cc21 (stereo not shown) [IND_CC-347, 2-Methyl-N-[6-(2-pyridin-4-yl-2,8-diazaspiro[4.5]decane-8-carbonyl)-2,3-dihydro-1H-inden-1-yl]-benzamide]
102% | CN(C1CCc2ccc(C(=O)N3CCC4(CC3)CCN(c3ccncc3)CC4)cc21)S(=O)(=O)Cc1ccccc1F (stereo not shown) [IND_CC-348, 1-(2-Fluorophenyl)-N-methyl-N-[6-(9-pyridin-4-yl-3,9-diazaspiro[5.5]undecane-3-carbonyl)-2,3-dihydro-1H-inden-1-yl]-methanesulfonic acid amide]
105% | O=C(c1ccc2c(c1)C(NS(=O)(=O)Cc1ccccc1F)CC2)N1CCC2(CC1)CCN(c1ccncc1)CC2 (stereo not shown) [IND_CC-349, 1-(2-Fluorophenyl)-N-[6-(9-pyridin-4-yl-3,9-diazaspiro[5.5]undecane-3-carbonyl)-2,3-dihydro-1H-inden-1-yl]-methanesulfonic acid amide]
106% | O=C(c1ccc2c(c1)C(NS(=O)(=O)Cc1ccccc1F)CC2)N1CCC2(CC1)CCN(c1ccncc1)C2 (stereo not shown) [IND_CC-350, 1-(2-Fluorophenyl)-N-[6-(2-pyridin-4-yl-2,8-diazaspiro[4.5]decane-8-carbonyl)-2,3-dihydro-1H-inden-1-yl]-methanesulfonic acid amide]
99% | CN(C1CCc2ccc(C(=O)N3CCC4(CC3)CCN(c3ccncc3)CC4)cc21)S(=O)(=O)Cc1cccc(Cl)c1 (stereo not shown) [IND_CC-351, 1-(3-Chlorophenyl)-N-methyl-N-[6-(9-pyridin-4-yl-3,9-diazaspiro[5.5]undecane-3-carbonyl)-2,3-dihydro-1H-inden-1-yl]-methanesulfonic acid amide]
